Source: ChEMBL document CHEMBL1201862, “PubChem BioAssay data set” (2004)
Several values for one entry are separate records, joined by “and”; a condition that tells them apart may be missing. Equal values may be shown once.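 Compound exposure: 48 hours, 5 concentrations, 96-well plates. GI50 marks 50% less growth.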 Activity calls are given as the source filed them. Cut-off read from the data, not from the text of the source: active = GI50 up to about 1.1 µM and inactive = higher.

Columns and labels:
Assay in all cases: NCI anticancer screen, dose series, 48 h
A498 = test system: A498
CAKI-1 = test system: CAKI-1
COLO 205 = test system: COLO 205
HL-60 = test system: HL-60
HOP-92 = test system: HOP-92
Malme-3M = test system: Malme-3M
NCI-H23 = test system: NCI-H23
NCI-H460 = test system: NCI-H460
OVCAR-3 = test system: OVCAR-3
OVCAR-5 = test system: OVCAR-5
SF-539 = test system: SF-539
SK-MEL-2 = test system: SK-MEL-2
SK-MEL-5 = test system: SK-MEL-5
SK-OV-3 = test system: SK-OV-3
SW-620 = test system: SW-620
UACC-62 = test system: UACC-62
HCT-116 = test system: HCT-116
MDA-MB-435 = test system: MDA-MB-435

Structure (SMILES) | GI50 (A498) | GI50 (CAKI-1) | GI50 (COLO 205) | GI50 (HL-60) | GI50 (HOP-92) | GI50 (Malme-3M) | GI50 (NCI-H23) | GI50 (NCI-H460) | GI50 (OVCAR-3) | GI50 (OVCAR-5) | GI50 (SF-539) | GI50 (SK-MEL-2) | GI50 (SK-MEL-5) | GI50 (SK-OV-3) | GI50 (SW-620) | GI50 (UACC-62) | GI50 (HCT-116) | GI50 (MDA-MB-435)
CC1OC(OC2C(OC(=O)[C@]34CCC(C)(C)CC3C3=CCC5[C@@]6(C)C[C@H](O)[C@H](OC7OC(CO)C(O)C(O)C7N)[C@@](C)(C(=O)O)C6CC[C@@]5(C)C3(C)CC4)OCC(O)C2O)C(O)C(O)C1OC1OCC(O)C(O)C1O (stereo partly drawn) | > 100 µM (inactive) | > 100 µM (inactive) | > 100 µM (inactive) | > 100 µM (inactive) | > 100 µM (inactive) | > 100 µM (inactive) | > 100 µM (inactive) | > 100 µM (inactive) | > 100 µM (inactive) | > 100 µM (inactive) | > 100 µM (inactive) | > 100 µM (inactive) | > 100 µM (inactive) | > 100 µM (inactive) | > 100 µM (inactive) | > 100 µM (inactive) | – | –
CC1=COC(C)(C=C(C#N)C#N)CC1 (stereo not drawn) | 27 µM (inactive) | – | > 100 µM (inactive) | 21.1 µM (inactive) | > 10 µM (inactive) | > 100 µM (inactive) | 61 µM (inactive) | > 100 µM (inactive) | – | > 100 µM (inactive) | 25.1 µM (inactive) | – | 58.1 µM (inactive) | > 100 µM (inactive) | 50.7 µM (inactive) | 57.7 µM (inactive) | 33 µM (inactive) | 32.4 µM (inactive)
COc1ccc(N[S+]([O-])c2ccccc2OC)cc1 (stereo not drawn) | – | 25.8 µM (inactive) | 24.4 µM (inactive) | 17.7 µM (inactive) | – | 19.6 µM (inactive) | 40.8 µM (inactive) | 16 µM (inactive) | 61.4 µM (inactive) | 46.5 µM (inactive) | 18.2 µM (inactive) | 11.8 µM (inactive) | 11.2 µM (inactive) | – | 22.7 µM (inactive) | 2.07 µM (inactive) | 13.9 µM (inactive) | 7.53 µM (inactive)
NC(=O)/N=C1\NCCC(=O)N1CCc1c[nH]c2ccccc12 | 17.3 µM (inactive) | 0.426 µM (active) | 14.1 µM (inactive) | 19.2 µM (inactive) | – | 18.4 µM (inactive) | 22.7 µM (inactive) | 16.3 µM (inactive) | 16 µM (inactive) | 39.4 µM (inactive) | 15.6 µM (inactive) | 14.2 µM (inactive) | 18.7 µM (inactive) | 50.7 µM (inactive) | 26.7 µM (inactive) | 18.2 µM (inactive) | 12.4 µM (inactive) | 17.8 µM (inactive)
CSC1=N/C(=C\c2cccs2)C(=O)N1CN1CCCCC1 | > 100 µM (inactive) | – | 70.6 µM (inactive) | – | 28.2 µM (inactive) | 28.3 µM (inactive) | > 100 µM (inactive) | – | > 100 µM (inactive) | > 100 µM (inactive) | – | > 100 µM (inactive) | 66.8 µM (inactive) | > 100 µM (inactive) | 36.9 µM (inactive) | 93.3 µM (inactive) | 52.5 µM (inactive) | > 100 µM (inactive)
NC1=NC(=O)C2(NN1)c1ccccc1-c1ccccc12 | 3.94 µM (inactive) | > 10 µM (inactive) | > 10 µM (inactive) | 8.99 µM (inactive) | > 10 µM (inactive) | > 10 µM (inactive) | > 10 µM (inactive) | > 10 µM (inactive) | > 10 µM (inactive) | > 10 µM (inactive) | > 10 µM (inactive) | > 10 µM (inactive) | > 10 µM (inactive) | > 10 µM (inactive) | > 10 µM (inactive) | – | > 10 µM (inactive) | –
CCOP(=O)(OCC)C(C)(CC)NC(=O)C(C(F)(F)F)C(F)(F)F (stereo not drawn) | > 100 µM (inactive) | > 100 µM (inactive) | > 100 µM (inactive) | – | > 57 µM (inactive) | > 100 µM (inactive) | > 100 µM (inactive) | > 100 µM (inactive) | > 100 µM (inactive) | > 100 µM (inactive) | – | > 100 µM (inactive) | > 100 µM (inactive) | > 100 µM (inactive) | > 100 µM (inactive) and 92 µM (inactive) | – | > 100 µM (inactive) | > 100 µM (inactive) and > 87.7 µM (inactive)
